The values that follow come from BindingDB's records for patent WO2025049746 (Eikon Therapeutics, 2025).

The target of assay [1] is T1, Bifunctional 3'-5' exonuclease/ATP-dependent helicase WRN [480-1251] (UniProt Q14191).
T1 construct: 480-1251
Nature of the assay: Biochemical Activity Assays.

The target of assay [2] is Bifunctional 3'-5' exonuclease/ATP-dependent helicase WRN (Homo sapiens, UniProt Q14191). Nature of the assay: ADP-Glo Kinase Assay. The procedure: ATPase activity was measured using the ADP-Glo Kinase Assay following the manufacturers recommended protocol.
Chain of Bifunctional 3'-5' exonuclease/ATP-dependent helicase WRN (Q14191 whole entry): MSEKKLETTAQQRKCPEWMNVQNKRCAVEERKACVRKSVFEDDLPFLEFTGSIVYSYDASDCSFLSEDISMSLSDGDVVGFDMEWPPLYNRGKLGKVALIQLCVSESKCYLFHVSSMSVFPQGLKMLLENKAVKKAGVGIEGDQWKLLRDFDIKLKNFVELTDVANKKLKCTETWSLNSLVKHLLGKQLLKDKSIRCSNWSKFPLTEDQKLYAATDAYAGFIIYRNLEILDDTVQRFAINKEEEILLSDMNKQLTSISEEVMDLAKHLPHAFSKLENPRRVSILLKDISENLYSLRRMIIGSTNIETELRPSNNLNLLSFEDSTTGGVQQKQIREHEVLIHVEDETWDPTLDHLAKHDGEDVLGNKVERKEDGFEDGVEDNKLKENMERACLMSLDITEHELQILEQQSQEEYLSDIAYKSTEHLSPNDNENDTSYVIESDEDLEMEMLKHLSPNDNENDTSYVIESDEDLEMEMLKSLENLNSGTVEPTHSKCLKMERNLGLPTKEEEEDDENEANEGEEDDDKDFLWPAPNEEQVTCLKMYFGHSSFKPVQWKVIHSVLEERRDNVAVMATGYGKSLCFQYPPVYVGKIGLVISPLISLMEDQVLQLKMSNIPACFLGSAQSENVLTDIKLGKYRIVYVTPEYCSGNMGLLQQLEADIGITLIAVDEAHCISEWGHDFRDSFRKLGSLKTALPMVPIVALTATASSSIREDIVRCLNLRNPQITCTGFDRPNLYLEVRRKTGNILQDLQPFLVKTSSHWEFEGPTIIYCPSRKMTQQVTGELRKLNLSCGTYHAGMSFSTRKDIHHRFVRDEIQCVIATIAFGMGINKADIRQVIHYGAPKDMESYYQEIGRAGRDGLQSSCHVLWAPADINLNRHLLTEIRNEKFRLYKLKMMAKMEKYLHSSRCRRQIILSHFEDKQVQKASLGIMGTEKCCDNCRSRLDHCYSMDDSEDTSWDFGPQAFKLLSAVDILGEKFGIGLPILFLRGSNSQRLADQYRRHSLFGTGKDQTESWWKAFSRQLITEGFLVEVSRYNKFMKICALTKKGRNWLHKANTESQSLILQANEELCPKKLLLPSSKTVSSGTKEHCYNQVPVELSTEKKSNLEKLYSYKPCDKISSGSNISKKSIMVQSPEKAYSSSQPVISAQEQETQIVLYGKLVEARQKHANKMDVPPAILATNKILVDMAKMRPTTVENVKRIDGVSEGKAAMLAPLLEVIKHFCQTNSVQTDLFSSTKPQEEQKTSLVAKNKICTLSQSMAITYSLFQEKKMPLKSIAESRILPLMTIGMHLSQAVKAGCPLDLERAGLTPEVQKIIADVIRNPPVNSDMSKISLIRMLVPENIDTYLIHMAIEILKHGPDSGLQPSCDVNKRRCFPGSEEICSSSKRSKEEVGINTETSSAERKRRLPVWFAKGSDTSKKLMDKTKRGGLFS
A general note: ADP-Glo first removes unused ATP, then detects ADP through luciferase.

T1 sequence (Q14191 480-1251): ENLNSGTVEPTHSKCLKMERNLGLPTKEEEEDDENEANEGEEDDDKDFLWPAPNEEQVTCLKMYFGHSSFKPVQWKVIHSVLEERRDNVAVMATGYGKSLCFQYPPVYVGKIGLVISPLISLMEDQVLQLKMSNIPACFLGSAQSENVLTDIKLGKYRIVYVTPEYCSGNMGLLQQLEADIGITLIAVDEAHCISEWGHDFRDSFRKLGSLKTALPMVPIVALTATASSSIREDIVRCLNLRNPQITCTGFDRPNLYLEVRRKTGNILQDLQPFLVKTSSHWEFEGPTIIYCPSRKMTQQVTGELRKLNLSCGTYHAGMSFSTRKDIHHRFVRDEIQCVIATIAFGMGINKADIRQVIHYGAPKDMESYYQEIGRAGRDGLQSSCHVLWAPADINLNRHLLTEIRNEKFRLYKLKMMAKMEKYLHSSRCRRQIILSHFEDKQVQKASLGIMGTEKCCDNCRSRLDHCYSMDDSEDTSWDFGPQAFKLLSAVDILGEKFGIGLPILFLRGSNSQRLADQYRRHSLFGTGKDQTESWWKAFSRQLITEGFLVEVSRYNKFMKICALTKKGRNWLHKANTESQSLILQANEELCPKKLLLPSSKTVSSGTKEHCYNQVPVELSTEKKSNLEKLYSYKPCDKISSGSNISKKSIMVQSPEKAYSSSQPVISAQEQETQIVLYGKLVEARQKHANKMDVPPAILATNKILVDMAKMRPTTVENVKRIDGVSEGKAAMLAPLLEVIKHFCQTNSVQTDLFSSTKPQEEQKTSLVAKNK

Usually IC50 stands for the point on the concentration scale where inhibition reaches its midpoint. Read a low IC50 as greater potency in that assay. For `CCc1c(N2CCN(C(=O)c3ncccc3N)CC2)c(=O)n2nc(C3=CCOCC3)nc2n1CC(=O)Nc1ccc(C(F)(F)F)cc1Cl` [WO2025049746, Example 34], the values for the IC50 in assay [1] and in assay [2] were 0.0285 µM and 0.0451 µM, respectively.
